Measured values from article PMC8041304, “Halogen Atoms in the Protein–Ligand System. Structural and Thermodynamic Studies of the Binding of Bromobenzotriazoles by the Catalytic Subunit of Human Protein Kinase CK2” (The Journal of Physical Chemistry. B, 2021).
Where “and” joins values, the source holds several entries; their conditions need not be identical. Identical values can stand only once.

Tests used:
[1] = parameters: method as in doi:10.1016/j.molliq.2019.111527; conditions: calculated water–octanol partition coefficient; cited from earlier work
[2] = Density measurements: partial molar volume and thermal expansivity of the solute; assay type: physicochemical; conditions: 50 mM phosphate buffer pH 11; for α2^0, thermal volumetric expansivity of the solute: 20, 25, 30 °C; for V2^0, partial molar volume: 25 °C
Experimental: Partial molar volumes were estimated with a density meter Anton Paar DMA 5000 M at 20, 25, and 30 °C from the concentration–density dependency for compounds dissolved in 50 mM phosphate buffer (pH 11). The experimental procedure and the data analysis method were described previously.[36],[57],[58] The partial molar volume at 25 °C (V2^0) and thermal volumetric expansivity of the solute (α2^0 = ∂V2^0/∂T) were estimated globally from two independent dilution series. The density of pure solvent (d0) was extrapolated individually for each experimental condition (i.e., temperature and buffer preparation). The change of d0 with temperature was further used to determine thermal volumetric expansivity coefficient of the bulk buffer according to the formula α0 = −(∂d0/∂T)/d0.
According to the Lum, Chandler, and Weeks (LCW) theory, the hydrophobic interactions scale for solutes of subnanometer size with the volume of the molecule rather than its surface.[61] We have recently proposed partial molar volume as the extensive parameter to describe both the solute volume and the solute-induced reorganization of the solvation shell.[36],[57],[58],[62],[63] By analyzing density data at three temperatures (20, 25, and 30 °C), we could estimate the partial molar volume of the ligand (V2^0) and the bulk solvent density (d0(T)). We could further separate the thermal expansivity coefficient of the bulk solvent (α0) and the apparent expansivity of the solute (α2^0). The latter parameter is comprised mainly of the thermal expansion effect of the hydration shell. The values of α0 fell within the narrow range of (26.9 ± 1.3) × 10^–5 K^–1, which is close to the literature data for water (25.72 × 10^–5 K^–1 at 25 °C).[64] […] The solute thermal expansivity (α2^0), together with the change of isobaric heat capacity upon ligand binding (ΔCp,bind), has already been associated with the properties of the solvation layer.[65],[66] Importantly, α2^0 is proportional to the partial molar volume V2^0 (Figure 3D). So, V2^0 may be another descriptor of hydrophobic interactions. Consequently, the volume-normalized solute expansivity coefficient (α = α2^0/V2^0) is almost the same for all studied bromobenzotriazoles (232 ± 22 × 10^–5 K^–1). Importantly, this value substantially exceeds the thermal expansivity coefficient of the bulk buffer (α0 = 26.9 ± 1.3 × 10^–5 K^–1), clearly confirming that water organization changes with temperature more near the solute surface than in the bulk.

[3] = parameters: method as in PMID 32162783; conditions: HPLC-derived hydrophobicity; cited from earlier work
[4] = molecular target: T1, hCK2α (Homo sapiens, UniProt P68400); parameters: method as in PMID 25891901; conditions: cited from earlier work
T1 construct: made in house

[5] = molecular target: T1, hCK2α; test: Fluorescence-monitored thermal denaturation (nanoDSF) of hCK2α complexes; assay type: binding; conditions: protein 2.5 μM, ligand 25 μM; for Tm (°C) at pH 7.5: hCK2α in complex with ligand; for ΔTm (°C) at pH 7.5: unfolding temperature with ligand minus without
Experimental: The samples were loaded into nanoDSF grade Standard Capillaries (NanoTemper Technologies) and analyzed using the Prometheus NT.48 nanoDSF device (NanoTemper Technologies). Thermal unfolding of the protein was monitored using a linear thermal ramp (1 °C·min^–1; 20–80 °C) with an excitation power of 30%.
This prompted us to measure the thermal stabilities of hCK2α and its complexes at pH 7.5 by fluorescence-monitored thermal denaturation (nanoDSF) (Table 2).

[6] = molecular target: T1, hCK2α; parameters: method as in PMID 23155426; conditions: pH 7.5; cited from earlier work
[7] = molecular target: T1, hCK2α; test: Isothermal titration calorimetry (MicroCal iTC200), reverse titration; assay type: binding; conditions: for ΔGbind, free energy of binding: ITC; for ΔSrt, entropic term for loss of ligand rotational and translational degrees of freedom: calculated from ligand molecular mass; for Ts, temperature at which the entropy change upon ligand binding is zero: estimated from the linear fit of ΔS(T); for ΔSother, entropy change assigned to all other processes accompanying ligand binding: ΔSrt + ΔSHE(Ts) + ΔSother = 0; for ΔSHE(Ts), hydrophobic-effect contribution to the entropy change upon binding: ≈ 1.35∙ΔCp,bind∙ln(Ts/386)
Experimental: ITC measurements were carried out using the MicroCal iTC200 (Malvern) calorimeter. The hCK2α samples were diluted to the required protein concentration with the 25 mM Tris-HCl pH 8 buffer containing 0.5 M NaCl. Stock ligand solutions were diluted with the appropriate DMSO volume prior to mixing with the buffer to obtain the required ligand concentration and a final DMSO content of 1%. Due to the limited solubility of halogenated benzotriazoles, all titration experiments were performed in the reverse mode, in which buffered ligand solution was placed in the calorimetric cell and titrated with the protein solution.[35]
In all experiments the maximum ligand concentration of 10 μM was used to minimize a possible contribution of the secondary binding site.

[8] = iTC200, 15 °C, pH 8, independent experiments separately evaluated
[9] = iTC200, 20 °C, pH 8, independent experiments separately evaluated
[10] = iTC200, 25 °C, pH 8, independent experiments separately evaluated
[11] = iTC200, 30 °C, pH 8, independent experiments separately evaluated
[12] = iTC200, 35 °C, pH 8, independent experiments separately evaluated

T1 sequence (P68400 whole entry): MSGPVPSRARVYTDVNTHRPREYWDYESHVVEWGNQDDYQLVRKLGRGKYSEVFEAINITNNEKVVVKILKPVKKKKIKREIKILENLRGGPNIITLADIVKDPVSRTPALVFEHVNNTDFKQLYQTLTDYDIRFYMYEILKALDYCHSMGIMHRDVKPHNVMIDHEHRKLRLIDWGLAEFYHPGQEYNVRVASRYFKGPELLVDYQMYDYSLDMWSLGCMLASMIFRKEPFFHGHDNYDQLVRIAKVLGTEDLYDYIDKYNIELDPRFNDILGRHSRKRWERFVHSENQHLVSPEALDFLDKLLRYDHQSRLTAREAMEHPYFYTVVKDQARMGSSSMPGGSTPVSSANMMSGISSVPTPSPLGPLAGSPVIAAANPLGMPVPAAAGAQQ

Brc1c(Br)c(Br)c2[nH]nnc2c1Br [4,5,6,7-Br4Bt, 4,5,6,7-tetrabromobenzotriazole]
log P [1]: 3.58 | α2^0, thermal volumetric expansivity of the solute [2]: 0.72 ± 0.28 cm^3·mol^–1·K^–1 | V2^0, partial molar volume [2]: 194.1 ± 1.1 cm^3·mol^–1 | log(τ) [3]: –0.00

Brc1cc(Br)c2[nH]nnc2c1Br [4,5,7-Br3Bt]
log P [1]: 2.98 | ΔTm (°C) at pH 8 [4]: 5.2 ± 0.1 °C | α2^0, thermal volumetric expansivity of the solute [2]: 0.55 ± 0.23 cm^3·mol^–1·K^–1 | V2^0, partial molar volume [2]: 174.7 ± 0.9 cm^3·mol^–1 | Tm (°C) at pH 7.5 [5]: 49.81 ± 0.07 °C | ΔTm (°C) at pH 7.5 [5]: 4.6 ± 0.1 °C | IC50 [6]: 5.8 ± 0.9 µM | log(τ) [3]: –0.22 | ΔGbind, free energy of binding ([7]; 25 °C, pH 8): –34.5 ± 0.4 kJ·mol^–1 | ΔSrt, entropic term for loss of ligand rotational and translational degrees of freedom [7]: -301 J∙mol-1∙K-1 | Ts, temperature at which the entropy change upon ligand binding is zero [7]: 316 ± 33 K | Kd [7, 8]: 670 nM and 760 nM | ΔS [7, 8]: 69 ± 8 J·mol-1·K-1 and 56 ± 8 J·mol-1·K-1 | Kd [7, 9]: 710 nM and 1200 nM | ΔS [7, 9]: 53 ± 6 J·mol-1·K-1 and 47 ± 11 J·mol-1·K-1 | Kd [7, 10]: 900 nM and 910 nM | ΔG [7, 10]: -8.25 ± 0.12 kcal/mol and -8.25 ± 0.19 kcal/mol | ΔS [7, 10]: 34 ± 5 J·mol-1·K-1 and 38 ± 9 J·mol-1·K-1 | Kd [7, 11]: 1360 nM and 760 nM | ΔS [7, 11]: 24 ± 8 J·mol-1·K-1 and 34 ± 6 J·mol-1·K-1 | Kd [7, 12]: 1230 nM and 870 nM | ΔS [7, 12]: 15 ± 6 J·mol-1·K-1 and 8 ± 6 J·mol-1·K-1 | ΔSother, entropy change assigned to all other processes accompanying ligand binding [7]: 118 ± 16 J∙mol-1∙K-1 | ΔSHE(Ts), hydrophobic-effect contribution to the entropy change upon binding [7]: 184 ± 16 J∙mol-1∙K-1

Brc1ccc2[nH]nnc2c1Br [4,5-Br2Bt]
log P [1]: 2.34 | ΔTm (°C) at pH 8 [4]: 3.5 ± 0.1 °C | α2^0, thermal volumetric expansivity of the solute [2]: 0.36 ± 0.21 cm^3·mol^–1·K^–1 | V2^0, partial molar volume [2]: 151.7 ± 0.9 cm^3·mol^–1 | Tm (°C) at pH 7.5 [5]: 49.55 ± 0.05 °C | ΔTm (°C) at pH 7.5 [5]: 4.4 ± 0.1 °C | IC50 [6]: 10.6 ± 0.9 µM | log(τ) [3]: –0.39 | ΔGbind, free energy of binding ([7]; 25 °C, pH 8): –34.9 ± 0.4 kJ·mol^–1 | ΔSrt, entropic term for loss of ligand rotational and translational degrees of freedom [7]: -291 J∙mol-1∙K-1 | Ts, temperature at which the entropy change upon ligand binding is zero [7]: 299 ± 37 K | Kd [7, 8]: 260 nM and 470 nM | ΔS [7, 8]: 21 ± 6 J·mol-1·K-1 and 22 ± 6 J·mol-1·K-1 | Kd [7, 9]: 610 nM and 540 nM | ΔH [7, 9]: -7.89 ± 0.359 kcal/mol and -7.89 ± 0.884 kcal/mol | ΔS [7, 9]: 8 ± 6 J·mol-1·K-1 and 7 ± 15 J·mol-1·K-1 | Kd [7, 10]: 770 nM and 670 nM | Kd [7, 11]: 880 nM and 1430 nM | Kd [7, 12]: 1440 nM and 1160 nM | ΔSother, entropy change assigned to all other processes accompanying ligand binding [7]: 143 ± 17 J∙mol-1∙K-1 | ΔSHE(Ts), hydrophobic-effect contribution to the entropy change upon binding [7]: 148 ± 17 J∙mol-1∙K-1

Brc1cc(Br)c2n[nH]nc2c1 [4,6-Br2Bt]
log P [1]: 2.37 | ΔTm (°C) at pH 8 [4]: 3.6 ± 0.1 °C | α2^0, thermal volumetric expansivity of the solute [2]: 0.41 ± 0.21 cm^3·mol^–1·K^–1 | V2^0, partial molar volume [2]: 155.4 ± 0.9 cm^3·mol^–1 | Tm (°C) at pH 7.5 [5]: 49.21 ± 0.04 °C | ΔTm (°C) at pH 7.5 [5]: 4.0 ± 0.1 °C | IC50 [6]: 10 ± 2.2 µM | log(τ) [3]: –0.38 | ΔGbind, free energy of binding ([7]; 25 °C, pH 8): –34.5 ± 0.4 kJ·mol^–1 | ΔSrt, entropic term for loss of ligand rotational and translational degrees of freedom [7]: -291 J∙mol-1∙K-1 | Ts, temperature at which the entropy change upon ligand binding is zero [7]: 301 ± 47 K | Kd [7, 8]: 343 nM and 540 nM | ΔS [7, 8]: 26 ± 8 J·mol-1·K-1 and 23 ± 12 J·mol-1·K-1 | Kd [7, 9]: 550 nM and 680 nM | ΔS [7, 9]: 7 ± 15 J·mol-1·K-1 and 11 ± 13 J·mol-1·K-1 | Kd [7, 10]: 900 nM and 880 nM | ΔS [7, 10]: 5 ± 8 J·mol-1·K-1 and 9 ± 15 J·mol-1·K-1 | Kd [7, 11]: 1250 nM and 1140 nM and 840 nM | Kd [7, 12]: 2400 nM and 1770 nM | ΔS [7, 12]: -26 ± 71 J·mol-1·K-1 and -26 ± 13 J·mol-1·K-1 | ΔSother, entropy change assigned to all other processes accompanying ligand binding [7]: 143 ± 20 J∙mol-1∙K-1 | ΔSHE(Ts), hydrophobic-effect contribution to the entropy change upon binding [7]: 148 ± 20 J∙mol-1∙K-1

Brc1ccc(Br)c2n[nH]nc12 [4,7-Br2Bt]
log P [1]: 2.37 | ΔTm (°C) at pH 8 [4]: 0.9 ± 0.1 °C | α2^0, thermal volumetric expansivity of the solute [2]: 0.19 ± 0.25 cm^3·mol^–1·K^–1 | V2^0, partial molar volume [2]: 149.8 ± 1.0 cm^3·mol^–1 | Tm (°C) at pH 7.5 [5]: 47.15 ± 0.03 °C | ΔTm (°C) at pH 7.5 [5]: 2.0 ± 0.1 °C | IC50 [6]: 72 ± 11 µM | log(τ) [3]: –0.55

Brc1cccc2n[nH]nc12 [4-BrBt]
log P [1]: 1.72 | ΔTm (°C) at pH 8 [4]: 0.5 ± 0.1 °C | α2^0, thermal volumetric expansivity of the solute [2]: 0.30 ± 0.08 cm^3·mol^–1·K^–1 | V2^0, partial molar volume [2]: 139.6 ± 0.3 cm^3·mol^–1 | Tm (°C) at pH 7.5 [5]: 45.92 ± 0.05 °C | ΔTm (°C) at pH 7.5 [5]: 0.7 ± 0.1 °C | IC50 [6]: 119 ± 10 µM | log(τ) [3]: –0.65
